Source: ChEMBL document CHEMBL1201862, “PubChem BioAssay data set” (2004)
Active and inactive are the calls of the source.

Tests used:
[1] = viability loss in HepG2 liver cells – cell-based, ATP luminescence, cherry-pick, set 6, cytotoxicity control, dose response (AID 1053125); assay type: functional
[2] = target: T1, DNA repair protein RAD52 homolog (Homo sapiens, UniProt P43351); assay type: functional, biochemical
T1 sequence (P43351 whole entry): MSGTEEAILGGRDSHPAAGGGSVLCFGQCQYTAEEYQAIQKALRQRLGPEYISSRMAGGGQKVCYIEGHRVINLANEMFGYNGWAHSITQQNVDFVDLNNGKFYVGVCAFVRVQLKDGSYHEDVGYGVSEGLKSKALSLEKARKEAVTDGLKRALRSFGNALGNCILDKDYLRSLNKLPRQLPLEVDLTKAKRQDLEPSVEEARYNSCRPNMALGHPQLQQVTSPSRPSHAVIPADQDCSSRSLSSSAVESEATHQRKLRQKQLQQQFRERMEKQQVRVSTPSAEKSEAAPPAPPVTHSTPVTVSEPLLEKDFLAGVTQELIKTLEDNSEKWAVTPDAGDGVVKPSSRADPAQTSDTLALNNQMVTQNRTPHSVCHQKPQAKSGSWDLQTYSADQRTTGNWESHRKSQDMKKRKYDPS

[3] = cells; conditions: HEK293
[4] = target: G-protein coupled receptor 183 (Homo sapiens, UniProt P32249); experiment: SAR confirmation of small molecule antagonists of the EBI2 receptor via a luminescent beta-arrestin assa.; assay type: functional
G-protein coupled receptor 183, sequence (P32249 whole entry, the tested form may be a part): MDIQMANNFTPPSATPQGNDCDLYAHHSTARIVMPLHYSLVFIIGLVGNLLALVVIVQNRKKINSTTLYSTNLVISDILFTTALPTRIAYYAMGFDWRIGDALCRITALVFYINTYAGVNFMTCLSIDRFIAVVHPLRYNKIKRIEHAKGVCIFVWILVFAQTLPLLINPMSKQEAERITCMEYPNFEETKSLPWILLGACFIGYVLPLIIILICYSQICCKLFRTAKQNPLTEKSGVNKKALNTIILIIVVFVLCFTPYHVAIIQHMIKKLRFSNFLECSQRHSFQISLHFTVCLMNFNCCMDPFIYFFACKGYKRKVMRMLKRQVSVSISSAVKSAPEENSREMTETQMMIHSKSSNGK

[5] = target: T2, RNA-binding protein pos-1 (Caenorhabditis elegans, UniProt G5EF15); experiment: disruptors of C. elegans POS-1 RNA interaction – biochemical, fluorescence polarization, dose response (AID 1964);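 further: purified POS-1 fused to maltose binding protein made in E. coli; potency of compounds blocking POS-1 binding to fluorescent RNA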
T2 sequence (G5EF15 whole entry): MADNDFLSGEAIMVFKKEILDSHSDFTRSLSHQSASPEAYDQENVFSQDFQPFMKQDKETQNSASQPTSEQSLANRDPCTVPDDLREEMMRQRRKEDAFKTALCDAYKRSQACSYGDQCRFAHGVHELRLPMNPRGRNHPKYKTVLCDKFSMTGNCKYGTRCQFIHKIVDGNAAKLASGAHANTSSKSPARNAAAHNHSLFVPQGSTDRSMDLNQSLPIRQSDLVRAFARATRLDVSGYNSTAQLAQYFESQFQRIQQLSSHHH

[6] = target: RNA-editing ligase 1, mitochondrial (Trypanosoma brucei brucei, UniProt P86926); experiment: inhibition of trypanosome RNA editing ligase – biochemical, fluorescence, Trypanosoma brucei, dose response (AID 1117295); assay type: functional
[7] = target: Caspase-9 (Homo sapiens, UniProt P55211); experiment: inhibitors of purified CASP9 protease – biochemical, fluorescence, plate reader, cherry-picked samples, selectivity assay for caspase-6 inhibitor project, dose response (AID 743293)
Caspase-9, sequence (P55211 1-315 limits assumed): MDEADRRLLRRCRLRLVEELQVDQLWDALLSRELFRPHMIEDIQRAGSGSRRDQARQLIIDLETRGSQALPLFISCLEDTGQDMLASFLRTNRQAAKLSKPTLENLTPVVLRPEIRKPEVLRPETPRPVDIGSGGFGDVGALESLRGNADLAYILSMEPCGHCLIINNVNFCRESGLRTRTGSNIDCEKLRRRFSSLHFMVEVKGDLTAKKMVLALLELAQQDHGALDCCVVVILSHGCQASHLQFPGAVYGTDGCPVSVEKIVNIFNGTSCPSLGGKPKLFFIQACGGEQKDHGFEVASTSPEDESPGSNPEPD
Caspase-9, sequence (P55211 331-416 limits assumed): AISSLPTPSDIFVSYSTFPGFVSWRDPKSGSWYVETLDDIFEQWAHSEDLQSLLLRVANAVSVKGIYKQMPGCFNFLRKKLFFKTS

[8] = target: T3, Zinc finger protein mex-5 (Caenorhabditis elegans, UniProt Q9XUB2); experiment: potency of MEX-5 RNA-binding blockers – biochemical, C. elegans, fluorescence polarization, dose response (AID 1960)
T3 sequence (Q9XUB2 whole entry): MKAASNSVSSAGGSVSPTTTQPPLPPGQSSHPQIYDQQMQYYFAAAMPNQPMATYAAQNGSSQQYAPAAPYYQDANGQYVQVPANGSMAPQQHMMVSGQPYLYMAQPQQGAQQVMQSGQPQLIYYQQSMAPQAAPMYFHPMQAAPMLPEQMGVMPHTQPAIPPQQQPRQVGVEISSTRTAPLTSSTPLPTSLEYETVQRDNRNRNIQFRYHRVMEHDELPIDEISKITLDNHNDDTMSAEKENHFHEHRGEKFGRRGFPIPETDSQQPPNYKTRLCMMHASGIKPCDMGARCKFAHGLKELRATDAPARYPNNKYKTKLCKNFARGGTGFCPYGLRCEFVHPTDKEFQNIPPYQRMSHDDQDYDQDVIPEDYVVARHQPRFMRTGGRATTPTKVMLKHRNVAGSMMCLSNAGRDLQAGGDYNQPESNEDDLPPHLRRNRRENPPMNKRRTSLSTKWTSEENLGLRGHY

[9] = target: T4, Histone-lysine N-methyltransferase NSD2 (Homo sapiens, UniProt O96028); assay type: biochemical
T4 sequence (O96028 whole entry): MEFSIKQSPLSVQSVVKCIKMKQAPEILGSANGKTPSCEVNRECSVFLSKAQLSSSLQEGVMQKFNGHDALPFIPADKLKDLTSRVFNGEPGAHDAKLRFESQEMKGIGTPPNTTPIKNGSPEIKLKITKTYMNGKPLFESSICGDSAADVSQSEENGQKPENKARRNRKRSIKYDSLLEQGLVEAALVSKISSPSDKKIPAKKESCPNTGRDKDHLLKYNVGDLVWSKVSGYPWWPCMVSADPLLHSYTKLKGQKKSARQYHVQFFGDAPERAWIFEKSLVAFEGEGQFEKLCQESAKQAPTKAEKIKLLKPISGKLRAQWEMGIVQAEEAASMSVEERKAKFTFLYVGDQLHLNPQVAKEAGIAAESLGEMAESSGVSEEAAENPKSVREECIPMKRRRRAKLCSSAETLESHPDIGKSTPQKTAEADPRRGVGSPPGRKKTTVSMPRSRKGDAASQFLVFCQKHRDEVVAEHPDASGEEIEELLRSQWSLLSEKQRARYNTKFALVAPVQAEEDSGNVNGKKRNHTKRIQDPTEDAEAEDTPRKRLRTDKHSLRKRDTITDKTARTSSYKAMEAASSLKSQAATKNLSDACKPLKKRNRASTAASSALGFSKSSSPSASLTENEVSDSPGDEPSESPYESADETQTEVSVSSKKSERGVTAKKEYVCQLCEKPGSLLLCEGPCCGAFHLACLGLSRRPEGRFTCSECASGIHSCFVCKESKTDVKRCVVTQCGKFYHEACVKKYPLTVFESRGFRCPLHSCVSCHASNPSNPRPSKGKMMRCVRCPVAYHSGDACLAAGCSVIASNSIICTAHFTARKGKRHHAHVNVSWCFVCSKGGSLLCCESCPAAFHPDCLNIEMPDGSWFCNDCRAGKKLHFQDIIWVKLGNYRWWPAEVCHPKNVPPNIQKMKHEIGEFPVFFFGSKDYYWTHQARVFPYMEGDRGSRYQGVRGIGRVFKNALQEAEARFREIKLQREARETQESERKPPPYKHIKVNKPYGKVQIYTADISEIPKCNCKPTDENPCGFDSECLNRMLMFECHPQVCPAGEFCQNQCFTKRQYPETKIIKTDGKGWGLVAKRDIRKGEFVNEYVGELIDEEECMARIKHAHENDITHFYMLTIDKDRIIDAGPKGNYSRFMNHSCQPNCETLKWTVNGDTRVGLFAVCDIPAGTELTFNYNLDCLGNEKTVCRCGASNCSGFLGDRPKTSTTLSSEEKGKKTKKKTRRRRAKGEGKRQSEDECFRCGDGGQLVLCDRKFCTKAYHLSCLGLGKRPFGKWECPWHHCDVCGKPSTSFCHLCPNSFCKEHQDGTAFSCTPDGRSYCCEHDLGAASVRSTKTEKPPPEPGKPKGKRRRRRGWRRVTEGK

[10] = target: 1-phosphatidylinositol 4,5-bisphosphate phosphodiesterase beta-3 (Homo sapiens, UniProt Q01970); experiment: Fluorescence-based biochemical high throughput dose response assay to identify inhibitors of phospholipase C isozymes (PLC-B3).
1-phosphatidylinositol 4,5-bisphosphate phosphodiesterase beta-3, sequence (Q01970 whole entry): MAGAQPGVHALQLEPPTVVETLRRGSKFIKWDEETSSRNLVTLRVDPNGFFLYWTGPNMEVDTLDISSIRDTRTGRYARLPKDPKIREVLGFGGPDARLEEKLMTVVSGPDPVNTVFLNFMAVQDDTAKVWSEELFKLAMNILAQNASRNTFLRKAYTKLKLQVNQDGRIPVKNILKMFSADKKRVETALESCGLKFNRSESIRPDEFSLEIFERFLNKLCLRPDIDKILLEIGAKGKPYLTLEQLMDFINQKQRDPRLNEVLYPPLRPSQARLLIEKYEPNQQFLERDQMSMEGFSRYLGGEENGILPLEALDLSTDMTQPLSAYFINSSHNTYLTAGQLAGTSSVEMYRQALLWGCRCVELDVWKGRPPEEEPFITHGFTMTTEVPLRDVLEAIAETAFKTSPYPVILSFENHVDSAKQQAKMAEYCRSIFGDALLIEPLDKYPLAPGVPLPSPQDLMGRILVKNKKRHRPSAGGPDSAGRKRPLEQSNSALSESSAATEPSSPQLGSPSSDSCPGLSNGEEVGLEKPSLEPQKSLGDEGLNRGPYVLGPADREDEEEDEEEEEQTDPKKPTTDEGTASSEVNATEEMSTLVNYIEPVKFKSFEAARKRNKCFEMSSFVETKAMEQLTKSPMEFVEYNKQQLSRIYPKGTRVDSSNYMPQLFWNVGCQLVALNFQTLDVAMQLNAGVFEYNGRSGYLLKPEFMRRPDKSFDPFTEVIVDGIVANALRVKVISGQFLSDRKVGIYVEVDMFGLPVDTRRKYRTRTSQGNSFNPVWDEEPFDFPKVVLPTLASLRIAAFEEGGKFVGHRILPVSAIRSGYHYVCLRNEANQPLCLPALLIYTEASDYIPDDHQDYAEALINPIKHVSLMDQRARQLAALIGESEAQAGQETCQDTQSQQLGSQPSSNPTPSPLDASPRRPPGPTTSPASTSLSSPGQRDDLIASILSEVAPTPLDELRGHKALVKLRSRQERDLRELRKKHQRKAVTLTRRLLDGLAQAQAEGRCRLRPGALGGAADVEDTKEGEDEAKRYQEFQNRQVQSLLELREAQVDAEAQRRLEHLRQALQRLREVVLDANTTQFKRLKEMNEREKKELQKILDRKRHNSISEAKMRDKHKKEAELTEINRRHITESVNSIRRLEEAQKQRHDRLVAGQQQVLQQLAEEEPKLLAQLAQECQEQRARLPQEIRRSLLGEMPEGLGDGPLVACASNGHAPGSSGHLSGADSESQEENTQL

[11] = target: Caspase-6 (Homo sapiens, UniProt P55212); experiment: inhibition of CASP6 peptide cleavage – biochemical, VEID-R110 fluorescence, cherry-pick, dose response (AID 720632)
[12] = target: DNA (cytosine-5)-methyltransferase 1 (Homo sapiens, UniProt P26358); experiment: inhibition of DNA methylation by DNMT1 – biochemical, fluorescent molecular beacon, confirmation (AID 602386); assay type: functional
DNA (cytosine-5)-methyltransferase 1, sequence (P26358 whole entry): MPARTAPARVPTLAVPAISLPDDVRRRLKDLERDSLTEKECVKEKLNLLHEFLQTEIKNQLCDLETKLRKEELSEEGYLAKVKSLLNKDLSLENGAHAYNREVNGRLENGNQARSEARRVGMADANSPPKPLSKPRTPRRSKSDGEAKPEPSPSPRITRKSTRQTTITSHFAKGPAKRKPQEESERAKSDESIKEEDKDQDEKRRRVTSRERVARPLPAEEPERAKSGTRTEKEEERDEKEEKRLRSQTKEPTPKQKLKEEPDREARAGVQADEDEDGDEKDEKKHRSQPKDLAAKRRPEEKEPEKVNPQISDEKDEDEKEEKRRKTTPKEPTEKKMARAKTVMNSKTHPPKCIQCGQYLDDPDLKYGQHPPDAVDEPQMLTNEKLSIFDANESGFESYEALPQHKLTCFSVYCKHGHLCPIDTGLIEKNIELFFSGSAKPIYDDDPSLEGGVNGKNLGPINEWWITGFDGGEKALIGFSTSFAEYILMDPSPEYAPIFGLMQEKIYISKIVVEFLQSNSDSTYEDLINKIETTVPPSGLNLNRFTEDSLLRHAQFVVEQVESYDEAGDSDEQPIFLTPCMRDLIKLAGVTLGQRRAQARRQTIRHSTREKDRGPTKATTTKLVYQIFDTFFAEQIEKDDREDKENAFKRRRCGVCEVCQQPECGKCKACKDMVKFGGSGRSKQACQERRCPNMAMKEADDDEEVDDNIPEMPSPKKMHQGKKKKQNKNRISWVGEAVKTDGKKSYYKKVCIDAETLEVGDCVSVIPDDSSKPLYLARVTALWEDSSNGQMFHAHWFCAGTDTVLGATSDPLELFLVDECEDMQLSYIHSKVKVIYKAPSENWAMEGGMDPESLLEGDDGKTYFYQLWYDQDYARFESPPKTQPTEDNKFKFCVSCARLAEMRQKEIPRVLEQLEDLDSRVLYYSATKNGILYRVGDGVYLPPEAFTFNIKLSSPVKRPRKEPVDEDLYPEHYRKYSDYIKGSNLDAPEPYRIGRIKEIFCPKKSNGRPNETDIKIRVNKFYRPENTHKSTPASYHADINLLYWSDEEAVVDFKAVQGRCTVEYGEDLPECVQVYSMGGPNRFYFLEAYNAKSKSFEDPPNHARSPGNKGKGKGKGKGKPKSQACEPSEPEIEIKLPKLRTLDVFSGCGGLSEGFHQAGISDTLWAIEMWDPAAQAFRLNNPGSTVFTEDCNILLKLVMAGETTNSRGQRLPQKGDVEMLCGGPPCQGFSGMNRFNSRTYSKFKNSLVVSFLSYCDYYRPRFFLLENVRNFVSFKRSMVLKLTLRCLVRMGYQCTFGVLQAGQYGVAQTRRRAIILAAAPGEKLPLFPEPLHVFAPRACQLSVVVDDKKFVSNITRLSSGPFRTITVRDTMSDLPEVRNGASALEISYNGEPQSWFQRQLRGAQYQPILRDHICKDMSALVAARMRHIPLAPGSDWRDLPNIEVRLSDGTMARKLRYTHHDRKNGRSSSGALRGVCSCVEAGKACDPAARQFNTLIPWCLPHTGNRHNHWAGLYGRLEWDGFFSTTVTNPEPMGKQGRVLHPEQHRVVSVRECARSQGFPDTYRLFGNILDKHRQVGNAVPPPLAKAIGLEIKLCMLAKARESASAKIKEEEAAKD

[13] = target: 1-phosphatidylinositol 4,5-bisphosphate phosphodiesterase gamma-1 (Homo sapiens, UniProt P19174); experiment: Counterscreen for inhibitors of phospholipase C isozymes (PLC-B3): Fluorescence-based biochemical high throughput dose response assay to identify inhibitors of phospholipase C isozymes (PLC-gamma1).
1-phosphatidylinositol 4,5-bisphosphate phosphodiesterase gamma-1, sequence (P19174 whole entry): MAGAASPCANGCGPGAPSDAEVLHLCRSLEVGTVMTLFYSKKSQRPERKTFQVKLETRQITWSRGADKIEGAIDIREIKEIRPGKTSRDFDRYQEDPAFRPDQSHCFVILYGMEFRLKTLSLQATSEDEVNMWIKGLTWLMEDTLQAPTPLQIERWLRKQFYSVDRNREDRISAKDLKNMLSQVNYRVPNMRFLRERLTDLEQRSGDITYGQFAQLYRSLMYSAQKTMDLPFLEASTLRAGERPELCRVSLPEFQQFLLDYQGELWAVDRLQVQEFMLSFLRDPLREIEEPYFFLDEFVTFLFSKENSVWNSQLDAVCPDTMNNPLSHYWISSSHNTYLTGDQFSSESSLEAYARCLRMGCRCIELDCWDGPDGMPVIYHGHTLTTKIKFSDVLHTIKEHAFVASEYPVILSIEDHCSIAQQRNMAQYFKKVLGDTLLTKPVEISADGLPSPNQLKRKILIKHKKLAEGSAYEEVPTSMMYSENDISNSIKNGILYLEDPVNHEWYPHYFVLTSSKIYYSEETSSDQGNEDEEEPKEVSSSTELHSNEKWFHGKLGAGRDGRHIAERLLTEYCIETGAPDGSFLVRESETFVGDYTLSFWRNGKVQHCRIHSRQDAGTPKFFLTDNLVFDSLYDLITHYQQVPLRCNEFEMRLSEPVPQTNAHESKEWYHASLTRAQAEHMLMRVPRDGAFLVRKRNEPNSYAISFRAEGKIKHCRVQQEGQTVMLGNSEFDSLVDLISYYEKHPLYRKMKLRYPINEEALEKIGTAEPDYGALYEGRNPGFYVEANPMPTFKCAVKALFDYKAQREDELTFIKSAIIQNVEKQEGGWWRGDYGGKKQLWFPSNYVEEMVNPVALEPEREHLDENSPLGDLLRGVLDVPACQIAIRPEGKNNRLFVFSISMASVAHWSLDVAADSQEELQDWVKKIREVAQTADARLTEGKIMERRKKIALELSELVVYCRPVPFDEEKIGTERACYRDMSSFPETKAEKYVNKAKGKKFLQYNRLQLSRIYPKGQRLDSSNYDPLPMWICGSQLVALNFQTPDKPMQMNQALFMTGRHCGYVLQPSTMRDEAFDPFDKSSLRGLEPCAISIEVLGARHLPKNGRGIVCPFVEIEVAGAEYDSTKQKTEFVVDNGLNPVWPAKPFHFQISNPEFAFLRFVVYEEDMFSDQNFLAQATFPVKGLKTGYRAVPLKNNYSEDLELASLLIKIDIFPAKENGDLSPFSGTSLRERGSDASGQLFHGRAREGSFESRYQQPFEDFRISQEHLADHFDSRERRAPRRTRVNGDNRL

SMILES: Cc1cccn2c(=O)c3cc(C(=O)NC(C)c4ccccc4)c(=N)n(CCCn4ccnc4)c3nc12 (stereo not drawn)
- AC50 [1]: > 52 µM (inactive)
- AC50 [2]: 4.29 µM (active)
- AC50 [3]: > 52 µM (inactive)

SMILES: O=C(/C=C/c1ccc(F)cc1)N1CCN(S(=O)(=O)c2ccc(Br)cc2)CC1
- IC50 [4]: 0.00343 µM (active)

SMILES: Nc1cc(S(=O)(=O)O)cc([N+](=O)[O-])c1O
- EC50 [5]: > 300 µM (not active)
- IC50 [6]: 4.99 µM (active)
- AC50 [7]: > 70 µM (inactive)
- EC50 [8]: > 300 µM (not active)
- AC50 [9]: 16.3 µM (active)
- IC50 [10]: > 123 µM (inactive)
- AC50 [11]: 3.5 µM (active)
- IC50 [12]: 3.2 µM (active)
- IC50 [13]: 3.97 µM (active)
